From patent US20230234942A1, “COMPOUNDS FOR TREATING HUNTINGTON'S DISEASE” (PTC Therapeutics, Inc., priority 2020, published 2023)

Tested on: Endogenous Huntingtin Protein
Assay: Endogenous Huntingtin Protein Assay (ELISA-based MSD electrochemiluminescence)
Type: cell-based
Settings: Table 2; MSD plates coated with MW1 (expanded polyglutamine) or MAB2166 capture antibody; "inactive" = result above the detection limit of the assay
Procedure: Compounds of Formula (I) were tested using the Meso Scale Discovery (MSD) Assay provided in International Application No. PCT/US2016/066042, filed on Dec. 11, 2016 and claiming priority to U.S. Provisional Application 62/265,652 filed on Dec. 10, 2015, the entire contents of which are incorporated herein by reference.
The Endogenous Huntingtin Protein assay used in Biological Example 1 was developed using the ELISA-based MSD electrochemiluminescence assay platform.
Meso Scale Discovery (MSD) 96-well or 384-well plates were coated overnight at 4° C. with MW1 (expanded polyglutamine) or MAB2166 monoclonal antibody (for capture) at a concentration of 1 μg/mL in PBS (30 μL per well). Plates were then washed three times with 300 μL wash buffer (0.05% Tween-20 in PBS) and blocked (100 μL blocking buffer; 5% BSA in PBS) for 4-5 hours at room temperature with rotational shaking and then washed three times with wash buffer.
Samples (25 μL) were transferred to the antibody-coated MSD plate and incubated overnight at 4° C. After removal of the lysates, the plate was washed three times with wash buffer, and 25 μL of #56565 (Cell signaling; rabbit monoclonal) secondary antibody (diluted to 0.25 μg/mL in 0.05% Tween-20 in blocking buffer) was added to each well and incubated with shaking for 1 Hour at room temperature. Following incubation with the secondary antibody, the wells were rinsed with wash buffer after which 25 μL of goat anti-rabbit SULFO TAG secondary detection antibody (required aspect of the MSD system) (diluted to 0.25 μg/mL in 0.05% Tween-20 in blocking buffer) was added to each well and incubated with shaking for 1 hour at room temperature. After rinsing three times with wash buffer, 150 μL of read buffer T with surfactant (MSD) were added to each empty well, and the plate was imaged on a SI 6000 imager (MSD) according to manufacturers' instructions provided for 96- or 384-well plates.

IC50	IC50 (nM)	SMILES
5.3 nM		C[C@@H]1CN(c2ncc(-c3ccc(-c4cc(C#N)c5nn(C)cc5c4)cc3O)nn2)C[C@H](C)N1 [Cpd 80, 5-(4-{3-[(3R,5S)-3,5-dimethylpiperazin-1-yl]-1,2,4-triazin-6-yl}-3-hydroxyphenyl)-2-methyl-2H-indazole-7-carbonitrile]
7.7 nM		Oc1cc(-c2ncsn2)ccc1-c1cnc(N2CCN[C@@H](C3CC3)C2)nn1 [Cpd 213, 2-{3-[(3S)-3-cyclopropylpiperazin-1-yl]-1,2,4-triazin-6-yl]-5-(1,2,4-thiadiazol-3-yl)phenol]
646 nM		CC(C)[C@H]1CN(c2ncc(-c3ccc(-c4nc(C#N)cs4)cc3O)nn2)CCN1 [Cpd 273, 2-(3-hydroxy-4-{3-[(3S)-3-(propan-2-yl)piperazin-1-yl]-1,2,4-triazin-6-yl}phenyl)-1,3-thiazole-4-carbonitrile]
173 nM		Oc1cc(-n2nccn2)cnc1-c1cnc(N2CCN[C@@H](C3CC3)C2)nn1 [Cpd 182, 2-{3-[(3S)-3-cyclopropylpiperazin-1-yl]-1,2,4-triazin-6-yl}-5-(2H-1,2,3-triazol-2-yl)pyridin-3-ol]
10 nM		COc1cc(-c2ccc(-c3cnc(N4CCN[C@@H](C(C)C)C4)nn3)c(O)c2)nc(OC)n1 [Cpd 207, 5-(2,6-dimethoxypyrimidin-4-yl)-2-{3-[(3S)-3-(propan-2-yl)piperazin-1-yl]-1,2,4-triazin-6-yl}phenol]
2.1 nM		Oc1cc(-c2c[nH]nc2F)ccc1-c1cnc(N2CCN[C@@H](C3CC3)C2)nn1 [Cpd 1, 2-{3-[(3S)-3-cyclopropylpiperazin-1-yl]-1,2,4-triazin-6-yl}-5-(3-fluoro-1H-pyrazol-4-yl)phenol]
876 nM		Oc1cc(-c2cn[nH]c2)ccc1-c1cnc(N2CCN3C[C@H](O)C[C@H]3C2)nn1 [Cpd 59, (7R,8aS)-2-{6-[2-hydroxy-4-(1H-pyrazol-4-yl)phenyl]-1,2,4-triazin-3-yl}octahydropyrrolo[1,2-a]pyrazin-7-ol]
60.5 nM		CC(C)[C@H]1CN(c2ncc(-c3ccc(-c4ccncc4)cc3O)nn2)CCN1 [Cpd 161, 2-{3-[(3S)-3-(propan-2-yl)piperazin-1-yl]-1,2,4-triazin-6-yl}-5-(pyridin-4-yl)phenol]
7.3 nM		CC(C)(C)[C@H]1CN(c2ncc(-c3ccc(-c4c[nH]nc4F)cc3O)nn2)CCN1 [Cpd 125, 2-{3-[(3S)-3-tert-butylpiperazin-1-yl]-1,2,4-triazin-6-yl}-5-(3-fluoro-1H-pyrazol-4-yl)phenol]
6.8 nM		COc1cc(-c2ccc(-c3cnc(N4C[C@@H](C)N[C@@H](C)C4)nn3)c(O)c2)nn2nc(C)nc12 [Cpd 90, 2-{3-[(3R,5S)-3,5-dimethylpiperazin-1-yl]-1,2,4-triazin-6-yl}-5-(8-methoxy-2-methyl[1,2,4]triazolo[1,5-b]pyridazin-6-yl)phenol]
4.9 nM		CCN1CCN(c2ncc(-c3ccc(-c4cc(F)c5nc(C)cn5c4)cc3O)nn2)CC1 [Cpd 77, 2-[3-(4-ethylpiperazin-1-yl)-1,2,4-triazin-6-yl]-5-(8-fluoro-2-methylimidazo[1,2-a]pyridin-6-yl)phenol]
36.6 nM		CC[C@H]1CN(c2ncc(-c3ccc(-c4cnc5nn(C)nc5c4)cc3O)nn2)C[C@@H](C)N1 [Cpd 214, 2-{3-[(3S,5R)-3-ethyl-5-methylpiperazin-1-yl]-1,2,4-triazin-6-yl]-5-(2-methyl-2H-[1,2,3]triazolo[4,5-b]pyridin-6-yl)phenol]
	inactive	Oc1cc(-c2cn[nH]c2)ccc1-c1cnc(N2CCN3CCOCC3C2)nn1 (stereo not drawn) [Cpd 64, 2-[3-(hexahydropyrazino[2,l-c][1,4]oxazin-8(1H)-yl)-1,2,4-triazin-6-yl]-5-(1H-pyrazol-4-yl)phenol]
29.2 nM		CC(C)[C@H]1CN(c2ncc(-c3ccc(-c4ccns4)cc3O)nn2)CCN1 [Cpd 270, 2-{3-[(3S)-3-(propan-2-yl)piperazin-1-yl]-1,2,4-triazin-6-yl}-5-(1,2-thiazol-5-yl)phenol]
609 nM		CN1CCN(c2ncc(-c3ncc(-c4cn[nH]c4)cc3O)nn2)CC1 [Cpd 124, 2-[3-(4-methylpiperazin-1-yl)-1,2,4-triazin-6-yl]-5-(1H-pyrazol-4-yl)pyridin-3-ol]
	inactive	Cc1cc(C)n2nc(-c3ccc(-c4cnc(N5C[C@@H](C)N[C@@H](C)C5)nn4)c(O)c3)nc2n1 [Cpd 117, 2-{3-[(3R,5S)-3,5-dimethylpiperazin-1-yl]-1,2,4-triazin-6-yl}-5-(5,7-dimethyl[1,2,4]triazolo[1,5-a]pyrimidin-2-yl)phenol]
607 nM		Cn1nnc2cnc(-c3ccc(-c4cnc(N5CCN[C@@H](C6CC6)C5)nn4)c(O)c3)cc21 [Cpd 174, 2-{3-[(3S)-3-cyclopropylpiperazin-1-yl]-1,2,4-triazin-6-yl}-5-(1-methyl-1H-[1,2,3]triazolo[4,5-c]pyridin-6-yl)phenol]

The next lines start with the molecule.

SMILES	IC50	IC50 (nM)
Oc1cc(-c2cn[nH]c2)ccc1-c1cnc(N2CCNC(c3ccncc3)C2)nn1 (stereo not shown) [Cpd 62, 5-(1H-pyrazol-4-yl)-2-{3-[3-(pyridin-4-yl)piperazin-1-yl]-1,2,4-triazin-6-yl}phenol]	2390 nM	
C[C@@H]1CN(c2ncc(-c3ccc(-c4cn[nH]c4)cc3O)nn2)CCN1 [Cpd 166, 2-{3-[(3R)-3-methylpiperazin-1-yl]-1,2,4-triazin-6-yl}-5-(1H-pyrazol-4-yl)phenol]	192 nM	
C[C@@H]1CN[C@@H](C)CN1c1ncc(-c2ccc(-c3cn[nH]c3)cc2O)nn1 (single isomer, unassigned) [Cpd 190, 2-{3-[(2R,5S)-2,5-dimethylpiperazin-1-yl]-1,2,4-triazin-6-yl}-5-(1H-pyrazol-4-yl)phenol or 2-{3-[(2S,5R)-2,5-dimethylpiperazin-1-yl]-1,2,4-triazin-6-yl}-5-(1H-pyrazol-4-yl)phenol]	166 nM	
Cc1ncn2cc(-c3ccc(-c4cnc(N5CCN[C@@H](C6CC6)C5)nn4)c(O)c3)ccc12 [Cpd 194, 2-{3-[(3S)-3-cyclopropylpiperazin-1-yl]-1,2,4-triazin-6-yl}-5-(1-methylimidazo[1,5-a]pyridin-6-yl)phenol]	19.3 nM	
Oc1cc(-c2cn[nH]c2)ccc1-c1cnc(N2CCNC3(CC3)C2)nn1 [Cpd 55, 2-[3-(4,7-diazaspiro[2.5]octan-7-yl)-1,2,4-triazin-6-yl]-5-(1H-pyrazol-4-yl)phenol]	548 nM	
Oc1cc(-c2cn[nH]c2)ccc1-c1cnc(N2CCN3CCCCC3C2)nn1 (stereo not shown) [Cpd 203, 2-[3-(octahydro-2H-pyrido[1,2-a]pyrazin-2-yl)-1,2,4-triazin-6-yl]-5-(1H-pyrazol-4-yl)phenol]	42.5 nM	
CCC(C)C1CN(c2ncc(-c3ccc(-c4cn[nH]c4)cc3O)nn2)CCN1 (stereo not shown) [Cpd 33, 2-{3-[3-(butan-2-yl)piperazin-1-yl]-1,2,4-triazin-6-yl}-5-(1H-pyrazol-4-yl)phenol]	41.4 nM	
Cn1nnc2ncc(-c3ccc(-c4cnc(N5CCN[C@@H](C6CC6)C5)nn4)c(O)c3)cc21 [Cpd 169, 2-{3-[(3S)-3-cyclopropylpiperazin-1-yl]-1,2,4-triazin-6-yl}-5-(1-methyl-1H-[1,2,3]triazolo[4,5-b]pyridin-6-yl)phenol]	355 nM	
CC(C)C1CN(c2ncc(-c3ccc(-c4c[nH]nc4F)cc3O)nn2)CCN1 (stereo not shown) [Cpd 15, 5-(3-fluoro-1H-pyrazol-4-yl)-2-{3-[3-(propan-2-yl)piperazin-1-yl]-1,2,4-triazin-6-yl]phenol]	12.8 nM	
CC(C)[C@H]1CN(c2ncc(-c3ccc(-c4cn5ccnc5cn4)cc3O)nn2)CCN1 [Cpd 113, 5-(imidazo[1,2-a]pyrazin-6-yl)-2-{3-[(3S)-3-(propan-2-yl)piperazin-1-yl]-1,2,4-triazin-6-yl}phenol]	36 nM	
Oc1cc(-c2cn[nH]c2)ccc1-c1cnc(N2CCN3CCCC3C2)nn1 (stereo not shown) [Cpd 284, 2-[3-(hexahydropyrrolo[1,2-a]pyrazin-2(1H)-yl)-1,2,4-triazin-6-yl]-5-(1H-pyrazol-4-yl)phenol]	91.4 nM	
C[C@@H]1CN(c2ncc(-c3ccc(-c4cc5nn(C)nc5cn4)cc3O)nn2)C[C@H](C)N1 [Cpd 198, 2-{3-[(3R,5S)-3,5-dimethylpiperazin-1-yl]-1,2,4-triazin-6-yl}-5-(2-methyl-2H-[1,2,3]triazolo[4,5-c]pyridin-6-yl)phenol]	12.5 nM	
Cc1ncc2cc(-c3ccc(-c4cnc(N5CCN[C@@H](C6CC6)C5)nn4)c(O)c3)ccn12 [Cpd 195, 2-{3-[(3S)-3-cyclopropylpiperazin-1-yl]-1,2,4-triazin-6-yl}-5-(3-methylimidazo[1,5-a]pyridin-7-yl)phenol]	9.1 nM	
CC(C)(O)[C@H]1CN(c2ncc(-c3ccc(-c4c[nH]nc4F)cc3O)nn2)CCN1 [Cpd 25, 5-(3-fluoro-1H-pyrazol-4-yl)-2-{3-[(3R)-3-(2-hydroxypropan-2-yl)piperazin-1-yl]-1,2,4-triazin-6-yl]phenol]	24.6 nM	
